Assay results reported in PubChem BioAssay (NCI).
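All cell lines were grown in 96-well plates and treated with compound for 48 hours. GI50 is the concentration that inhibits growth by half. TGI marks complete inhibition of growth.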

How the values were obtained:
Experiment in all cases: growth of human tumour cells (NCI), 48 h
[1] = tested on: 786-0 renal
[2] = tested on: A498 renal
[3] = tested on: A549 NSCLC
[4] = tested on: ACHN renal
[5] = tested on: CAKI-1 renal
[6] = tested on: CCRF-CEM leukemia
[7] = tested on: COLO 205 colon
[8] = tested on: DU-145 prostate
[9] = tested on: EKVX NSCLC
[10] = tested on: HCC-2998 colon
[11] = tested on: HCT-116 colon
[12] = tested on: HCT-15 colon
[13] = tested on: HL-60(TB) leukemia
[14] = tested on: HOP-62 NSCLC
[15] = tested on: HOP-92 NSCLC
[16] = tested on: HS 578T breast
[17] = tested on: HT29 colon
[18] = tested on: IGROV1 ovarian
[19] = tested on: K-562 leukemia
[20] = tested on: KM12 colon
[21] = tested on: LOX IMVI melanoma
[22] = tested on: M14 melanoma
[23] = tested on: MALME-3M melanoma
[24] = tested on: MCF7 breast
[25] = tested on: MDA-MB-231 breast
[26] = tested on: MDA-MB-435
[27] = tested on: MOLT-4 leukemia
[28] = tested on: NCI-H226 lung
[29] = tested on: NCI-H23 lung
[30] = tested on: NCI-H460 lung
[31] = tested on: NCI-H522 lung
[32] = tested on: NCI/ADR-RES ovarian
[33] = tested on: OVCAR-3 ovarian
[34] = tested on: OVCAR-4 ovarian
[35] = tested on: OVCAR-5 ovarian
[36] = tested on: OVCAR-8 ovarian
[37] = tested on: PC-3 prostate
[38] = tested on: RPMI-8226 leukemia
[39] = tested on: RXF 393 renal
[40] = tested on: SF-268 CNS
[41] = tested on: SF-295 CNS
[42] = tested on: SF-539 CNS
[43] = tested on: SK-MEL-28 melanoma
[44] = tested on: SK-MEL-5 melanoma
[45] = tested on: SK-OV-3 ovarian
[46] = tested on: SN12C renal
[47] = tested on: SNB-19 CNS
[48] = tested on: SNB-75 CNS
[49] = tested on: SR leukemia
[50] = tested on: SW-620 colon
[51] = tested on: T-47D breast
[52] = tested on: TK-10 renal
[53] = tested on: U251 CNS
[54] = tested on: UACC-257 melanoma
[55] = tested on: UACC-62 melanoma
[56] = tested on: UO-31 renal

In the case of `COc1cc(/C=C2\C(=O)Nc3ccccc32)cc(OC)c1O`, the GI50 [1] is reported as 7.07 µM, the TGI [1] is reported as 27.5 µM and the GI50 [2] is reported as 2.08 µM. It also gave a TGI [2] of 15.8 µM, a GI50 [3] of 4.91 µM and a TGI [3] of 48.1 µM. For the same molecule, the GI50 [4] was 4.7 µM, the TGI [4] was 22.2 µM and the GI50 [5] was 2.93 µM. For the same molecule, the TGI [5] was 25.3 µM, the GI50 [6] was 5.16 µM and the TGI [6] was > 100 µM. It also gave a GI50 [7] of 12.3 µM, a TGI [7] of 26.8 µM and a GI50 [8] of 5.35 µM. For the same molecule, the TGI [8] was 46.4 µM, the GI50 [9] was 4.86 µM and the TGI [9] was 48.2 µM. For the same molecule, the GI50 [10] was 11.9 µM, the TGI [10] was 24.5 µM and the GI50 [11] was 3.29 µM. The TGI [11] was 13.5 µM, the GI50 [12] was 3.16 µM and the TGI [12] was 15.1 µM. For the same molecule, the GI50 [13] was 2.8 µM, the TGI [13] was 11.1 µM and the GI50 [14] was 4.24 µM. It also gave a TGI [14] of 23.2 µM, a GI50 [15] of 4.15 µM and a TGI [15] of 49.2 µM. It also gave a GI50 [16] of 1.77 µM, a TGI [16] of 6.11 µM and a GI50 [17] of 9.07 µM. It also gave a TGI [17] of 31.1 µM, a GI50 [18] of 3.72 µM and a TGI [18] of 20.4 µM. For the same molecule, the GI50 [19] was 2.12 µM, the TGI [19] was > 100 µM and the GI50 [20] was 2.53 µM. It also gave a TGI [20] of 11.5 µM, a GI50 [21] of 3.99 µM and a TGI [21] of 16.3 µM. It also gave a GI50 [22] of 2.76 µM, a TGI [22] of 11 µM and a GI50 [23] of 2.98 µM. The TGI [23] was 21.8 µM, the GI50 [24] was 0.728 µM and the TGI [24] was 15 µM. For the same molecule, the GI50 [25] was 3.09 µM, the TGI [25] was 20.8 µM and the GI50 [26] was 0.649 µM. The TGI [26] was 2.21 µM, the GI50 [27] was 3.82 µM and the TGI [27] was 92.3 µM. The GI50 [28] was 17.7 µM, the TGI [28] was > 100 µM and the GI50 [29] was 4.97 µM. For the same molecule, the TGI [29] was 34.2 µM, the GI50 [30] was 3.12 µM and the TGI [30] was 11.7 µM. It also gave a GI50 [31] of 1.72 µM, a TGI [31] of 5.1 µM and a GI50 [32] of 2.47 µM. It also gave a TGI [32] of 7.62 µM, a GI50 [33] of 1.98 µM and a TGI [33] of 5.05 µM. The GI50 [34] was 4.95 µM, the TGI [34] was 31.3 µM and the GI50 [35] was 4.71 µM. The TGI [35] was 18.8 µM, the GI50 [36] was 4.98 µM and the TGI [36] was 29.7 µM. For the same molecule, the GI50 [37] was 21 µM, the TGI [37] was > 100 µM and the GI50 [38] was 5.47 µM. The TGI [38] was 27.5 µM, the GI50 [39] was 2.52 µM and the TGI [39] was 8.41 µM. For the same molecule, the GI50 [40] was 4.24 µM, the TGI [40] was 29.1 µM and the GI50 [41] was 2.99 µM. For the same molecule, the TGI [41] was 31.2 µM, the GI50 [42] was 2.5 µM and the TGI [42] was 13.3 µM. It also gave a GI50 [43] of 5.06 µM, a TGI [43] of 23 µM and a GI50 [44] of 2.87 µM. The TGI [44] was 10.8 µM, the GI50 [45] was 3.88 µM and the TGI [45] was 21.6 µM. The GI50 [46] was 3.61 µM, the TGI [46] was 23.3 µM and the GI50 [47] was 4.45 µM. The TGI [47] was 55.6 µM, the GI50 [48] was 1.17 µM and the TGI [48] was 8.44 µM. For the same molecule, the GI50 [49] was 1.6 µM, the TGI [49] was 16.9 µM and the GI50 [50] was 3.39 µM. It also gave a TGI [50] of 13.1 µM, a GI50 [51] of 3.56 µM and a TGI [51] of 84.5 µM. For the same molecule, the GI50 [52] was 7.14 µM, the TGI [52] was 37.1 µM and the GI50 [53] was 2.37 µM. It also gave a TGI [53] of 14 µM, a GI50 [54] of 1.81 µM and a TGI [54] of 18.7 µM. For the same molecule, the GI50 [55] was 2.59 µM, the TGI [55] was 11.1 µM and the GI50 [56] was 2.63 µM. It also gave a TGI [56] of 19.9 µM.
